Laboratory results from patent US5225528A, “Cyclic hexapeptide oxytocin antagonists” (priority 1990, dated 1993).
Structures can show the parent of a compound that is named as a salt. Where two headings read alike, the source gives them in different places. Numbered stars: 1 amine (or outer) side, 2 acyl side, 3 side chain; on linkers, the order of the positions; unused ones are H or OH. Square brackets hold non-standard residues; d marks the D form. Peptide text beside a SMILES is read from it. * marks the point of attachment. dPip(4-aza,4-Cbz) = O=C(O)[C@H]1CN(C(=O)OCc2ccccc2)CCN1; dPiz(1,6-dehydro) = O=C(O)[C@H]1CCC=NN1; d2Nal = N[C@H](Cc1ccc2ccccc2c1)C(=O)O; dNMeY = CN[C@H](Cc1ccc(O)cc1)C(=O)O; Pip(4-aza) = O=C(O)[C@@H]1CNCCN1; X6 = O=C([C@H]1CCCNN1[*:1])[*:2]; dNMeF = CN[C@H](Cc1ccccc1)C(=O)O; dOrn = NCCC[C@@H](N)C(=O)O; Pip = O=C(O)[C@@H]1CCCCN1; dPip = O=C(O)[C@H]1CCCCN1; Orn = NCCC[C@H](N)C(=O)O; Cbz = O=C(OCc1ccccc1)*; Boc = CC(C)(C)OC(=O)*; Bn = c1ccc(C*)cc1; OtBu = CC(C)(C)O*

What was measured:
[1] = target: T1, AVP-V2 sites (Rattus norvegicus, UniProt Q00788); assay: [^3 H]AVP binding to crude membrane preparation of male rat kidney medulla (AVP-V2 sites)
T1 construct: male rat liver (AVP-V1 sites) or kidney medulla (AVP-V2 sites); from tissue; host or cells: male rat kidney medulla, crude membranes
T1 sequence (Q00788 whole entry): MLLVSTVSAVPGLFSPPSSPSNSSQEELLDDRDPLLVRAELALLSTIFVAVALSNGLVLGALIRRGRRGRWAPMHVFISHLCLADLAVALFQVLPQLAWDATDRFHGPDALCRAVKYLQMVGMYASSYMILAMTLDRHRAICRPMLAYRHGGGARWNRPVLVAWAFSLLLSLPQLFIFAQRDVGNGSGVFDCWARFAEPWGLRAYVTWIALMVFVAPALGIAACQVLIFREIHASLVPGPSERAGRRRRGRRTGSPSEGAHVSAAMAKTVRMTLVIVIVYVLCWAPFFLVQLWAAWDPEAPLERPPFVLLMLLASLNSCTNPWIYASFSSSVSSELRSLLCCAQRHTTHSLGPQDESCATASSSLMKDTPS
Method: (§1) Nonspecific binding (5-10% of the total binding) was determined using 10 μM unlabeled AVP, and the binding reaction was terminated by filtration as described above for the [^3 H]OT binding assay.

[2] = target: T2, AVP-V1 sites (Rattus norvegicus, UniProt P30560); assay: [^3 H]AVP binding to crude membrane preparation of male rat liver (AVP-V1 sites)
T2 construct: crude membrane preparation of male rat liver (AVP-V1 sites); from tissue; host or cells: male rat liver, crude membranes
T2 sequence (P30560 whole entry): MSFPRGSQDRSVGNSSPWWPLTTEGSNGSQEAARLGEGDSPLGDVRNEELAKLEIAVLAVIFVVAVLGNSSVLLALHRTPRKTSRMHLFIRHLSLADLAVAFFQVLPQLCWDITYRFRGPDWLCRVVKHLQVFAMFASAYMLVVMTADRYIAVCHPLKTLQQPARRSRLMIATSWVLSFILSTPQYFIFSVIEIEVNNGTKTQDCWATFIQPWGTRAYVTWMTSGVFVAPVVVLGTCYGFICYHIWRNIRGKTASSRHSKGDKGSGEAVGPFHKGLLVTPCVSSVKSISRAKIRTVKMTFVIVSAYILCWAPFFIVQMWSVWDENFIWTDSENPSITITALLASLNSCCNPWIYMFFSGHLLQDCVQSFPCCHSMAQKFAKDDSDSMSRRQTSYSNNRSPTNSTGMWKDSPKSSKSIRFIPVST
Method: as §1

[3] = target: T3, uterine OT receptors (Rattus norvegicus, UniProt P70536); assay: [^3 H]OT binding to uterine OT receptors, crude membrane preparation of uteri from DES-treated rats; details: for inhibition at 1 µM: @ 1,000 (nM); for IC50: rat uterus membranes, 1 nM [^3 H]OT, read-out: Receptor Binding Results IC50 (nM) [^3 H]OT; for inhibition at 0.1 µM: @ 100 (nM)
T3 construct: from tissue; host or cells: uterus of DES-treated rats, crude membranes
T3 sequence (P70536 1-388): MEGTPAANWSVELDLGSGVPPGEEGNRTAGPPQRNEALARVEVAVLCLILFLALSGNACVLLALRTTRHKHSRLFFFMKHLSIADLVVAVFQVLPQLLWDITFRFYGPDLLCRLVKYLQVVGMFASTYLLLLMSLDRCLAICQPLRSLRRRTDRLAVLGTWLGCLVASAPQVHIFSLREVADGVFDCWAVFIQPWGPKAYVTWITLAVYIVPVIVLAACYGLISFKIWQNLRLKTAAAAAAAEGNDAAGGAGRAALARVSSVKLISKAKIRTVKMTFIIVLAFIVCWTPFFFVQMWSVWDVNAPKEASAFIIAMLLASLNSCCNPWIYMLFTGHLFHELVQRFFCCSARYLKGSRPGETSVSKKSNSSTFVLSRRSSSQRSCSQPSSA
Method: Competition studies were conducted at equilibrium (60 minutes; 22° C.) using 1 nM [^3 H]OT in the following assay buffer: 50 mM Tris-HCl, 5 mM MgCl2, and 0.1% BSA, pH 7.4.

[4] = rat kidney medulla membranes, 2 nM [^3 H]AVP, read-out: Receptor Binding Results IC50 (nM) [^3 H]-AVP-V2
[5] = Receptor Binding Results IC50 (nM) [^3 H]-AVP-V1
[6] = 1 h, read-out: [^3 H]OT: percent inhibition of radioligand at the given concentration
[7] = read-out: Receptor Binding Results IC50 (nM) [^3 H]-AVP-V1
[8] = read-out: Receptor Binding Results IC50 (nM) [^3 H]-AVP-V2
[9] = Receptor Binding Results IC50 (nM) [^3 H]-AVP-V2

CC[C@H](C)[C@@H]1NC(=O)[C@@H](Cc2ccc(OCc3ccccc3)cc2)NC(=O)[C@@H]2CCCN2C(=O)[C@@H](Cc2ccccc2)N(C)C(=O)[C@H](CCCCNC(=O)OC(C)(C)C)NC(=O)[C@H]2CCCCN2C1=O [Example 142, C-[D-(O-Benzyl)-tyrosinyl-L-isoleucyl-D-pipecolyl-L-(N-t-butyloxycarbonyl)lysyl-D-(N-methyl)phenylalanyl-L-prolyl]] (cyclo(I[dPip]K(Boc)[dNMeF]P[dY](Bn)))
IC50 [1, 4]: > 10000 nM
IC50 [2, 5]: > 10000 nM
inhibition at 1 µM [3, 6]: 12%

CC[C@H](C)[C@@H]1NC(=O)[C@@H](Cc2ccccc2)NC(=O)[C@@H]2CCCN2C(=O)[C@@H](Cc2ccccc2)N(C)C(=O)[C@H](CCCN)NC(=O)[C@H]2CCC=NN2C1=O [Example 125, c-[D-Phenylalanyl-L-isoleucyl-D-Δ-piperazyl-L-ornithyl-D-(N-methyl)phenylalanyl-L-prolyl] acetate salt] (cyclo(I[dPiz(1,6-dehydro)][Orn][dNMeF]P[dF]))
IC50 [1, 4]: 1600 nM
IC50 [2, 7]: 810 nM
IC50 [3]: 16 nM

CC[C@H](C)[C@@H]1NC(=O)[C@@H](Cc2ccc(O)cc2)NC(=O)[C@@H]2CCCN2C(=O)[C@@H](Cc2ccccc2)N(C)C(=O)[C@H](CCCCN)NC(=O)[C@H]2CCCCN2C1=O [Example 147, C-[D-Tyrosyl-L-isoleucyl-D-pipecolyl-L-lysyl-D-(N-methyl)phenylalanyl-L-prolyl]] (cyclo(I[dPip]K[dNMeF]P[dY]))
IC50 [1, 4]: 10000 nM
IC50 [2, 5]: 10000 nM
IC50 [3]: 860 nM

CC[C@H](C)[C@@H]1NC(=O)[C@@H](Cc2ccccc2)NC(=O)[C@@H]2CCCN2C(=O)[C@@H](Cc2ccccc2)NC(=O)[C@H]2CN(C(=O)OCc3ccccc3)CCN2C(=O)[C@H]2CCCCN2C1=O [Example 76, c-[D-Phenylalanyl-L-isoleucinyl-D-pipecolyl-D-piperazin-2-yl(4-Cbz)-D-phenylalanyl-L-prolyl]] (cyclo(I[dPip][dPip(4-aza,4-Cbz)][dF]P[dF]))
IC50 [1, 8]: 10600 nM
IC50 [2, 7]: 9300 nM
IC50 [3]: 460 nM

CC[C@H](C)[C@@H]1NC(=O)[C@@H](Cc2c[nH]c3ccccc23)NC(=O)[C@@H]2CCCN2C(=O)[C@@H](Cc2c[nH]cn2)NC(=O)[C@H](CCCNC(=O)OC(C)(C)C)NC(=O)[C@H]2CCCCN2C1=O [Example 129, c-[D-Tryptophanyl-L-isoleucyl-D-pipecolyl-(N^δ -Boc)-L-ornithyl-D-histidyl-L-prolyl] acetate salt] (cyclo(I[dPip][Orn](Boc)[dH]P[dW]))
IC50 [1, 4]: 10000 nM
IC50 [2, 5]: 10000 nM
IC50 [3]: 100 nM

CC[C@H](C)[C@@H]1NC(=O)C(Cc2c[nH]c3ccc(F)cc23)NC(=O)[C@@H]2CCCN2C(=O)[C@@H](Cc2c[nH]cn2)NC(=O)[C@@H]2CCCCN2C(=O)[C@H]2CCCCN2C1=O (single isomer, unassigned) [157 higher Rf]
IC50 [1, 4]: > 10000 nM
IC50 [2, 5]: 10000 nM
IC50 [3]: 590 nM

CC[C@H](C)[C@@H]1NC(=O)[C@@H](Cc2c[nH]c3ccccc23)NC(=O)[C@@H]2CCCN2C(=O)[C@@H](Cc2ccccc2)NC(=O)[C@H]2CN(C(=O)OCc3ccccc3)CCN2C(=O)[C@H]2CCCCN2C1=O [Example 90, c-[D-Tryptophanyl-L-isoleucinyl-D-pipecolyl-D-piperazin-2-yl(4-Cbz)-D-phenylalanyl-L-prolyl]] (cyclo(I[dPip][dPip(4-aza,4-Cbz)][dF]P[dW]))
IC50 [1, 4]: > 10000 nM
IC50 [2, 5]: > 10000 nM
inhibition at 0.1 µM [3, 6]: 59%

CC[C@H](C)[C@@H]1NC(=O)[C@@H](Cc2ccccc2)NC(=O)[C@@H]2CCCN2C(=O)[C@@H](CCCNC(=O)OCc2ccccc2)NC(=O)[C@@H]2CCCCN2C(=O)[C@H]2CCCCN2C1=O [Example 27, Cyclo[D-phenylalanyl-L-isoleucyl-D-pipecolyl-L-pipecolyl-D-(carbobenzyloxy)-ornithyl-L-prolyl]] (cyclo(I[dPip][Pip][dOrn](Cbz)P[dF]))
IC50 [1, 4]: 10000 nM
IC50 [2, 5]: 10000 nM
inhibition at 1 µM [3, 6]: 79%

CC[C@H](C)[C@@H]1NC(=O)[C@@H](Cc2c[nH]c3ccccc23)NC(=O)[C@@H]2CCCN2C(=O)[C@@H](Cc2ccc(OCc3ccccc3)cc2)N(C)C(=O)[C@@H]2CCCCN2C(=O)[C@H]2CCCCN2C1=O [Example 33, Cyclo[D-tryptophanyl-L-isoleucyl-D-pipecolyl-L-pipecolyl-D-(N^α methyl-O-benzyl)tyrosyl-L-prolyl]] (cyclo(I[dPip][Pip][dNMeY](Bn)P[dW]))
IC50 [1, 4]: > 10000 nM
IC50 [2, 5]: > 10000 nM
IC50 [3]: 100 nM

CC[C@H](C)[C@@H]1NC(=O)[C@@H](Cc2ccccc2)NC(=O)[C@@H]2CCCN2C(=O)[C@@H](CC(=O)OC(C)(C)C)NC(=O)[C@@H]2CCCCN2C(=O)[C@H]2CCCCN2C1=O [Example 179, c-[D-Phenylalanyl-L-isoleucinyl-D-pipecolyl-L-pipecolyl-D-(β-t-butyl)aspartyl-L-prolyl]] (cyclo(I[dPip][Pip][dD](OtBu)P[dF]))
IC50 [1, 4]: > 10000 nM
IC50 [2, 5]: > 10000 nM
inhibition at 1 µM [3, 6]: 63%

CC[C@H](C)[C@@H]1NC(=O)[C@@H](Cc2ccc3ccccc3c2)NC(=O)[C@@H]2CCCN2C(=O)[C@@H](Cc2c[nH]cn2)NC(=O)[C@@H]2CCCCN2C(=O)[C@H]2CCCCN2C1=O [Example 12, Cyclo[D-2-naphthalalanyl-L-isoleucyl-D-pipecolyl-L-pipecolyl-D-histidyl-L-prolyl]] (cyclo(I[dPip][Pip][dH]P[d2Nal]))
IC50 [1, 9]: > 1000 nM
IC50 [2, 5]: > 1000 nM
IC50 [3]: 1.2 nM

CC[C@H](C)[C@@H]1NC(=O)[C@@H](Cc2ccccc2)NC(=O)[C@@H]2CCCN2C(=O)[C@@H](CCCN)NC(=O)[C@@H]2CCCCN2C(=O)[C@H]2CCCCN2C1=O [Example 39, Cyclo[D-phenylalanyl-L-isoleucyl-D-pipecolyl-L-pipecolyl-D-ornithyl-L-prolyl]] (cyclo(I[dPip][Pip][dOrn]P[dF]))
IC50 [1, 9]: > 10000 nM
IC50 [2, 5]: > 1000 nM
inhibition at 0.1 µM [3, 6]: 28%

CC[C@H](C)[C@@H]1NC(=O)[C@@H](Cc2ccccc2)NC(=O)[C@@H]2CCCN2C(=O)[C@@H](Cc2ccccc2)NC(=O)[C@@H]2CNCCN2C(=O)[C@H]2CCCN2C1=O [Example 164, c-[D-Phenylalanyl-L-isoleucinyl-D-prolyl-L-piperazin-2-yl-D-phenylalanyl-L-prolyl]] (cyclo(I[dP][Pip(4-aza)][dF]P[dF]))
IC50 [1, 4]: > 10000 nM
IC50 [2, 5]: 10000 nM
IC50 [3]: 1300 nM

CC[C@H](C)[C@@H]1NC(=O)[C@@H](Cc2ccc3ccccc3c2)NC(=O)[C@@H]2CCCN2C(=O)[C@@H](Cc2c[nH]cn2)NC(=O)[C@H]2CN(C(=O)OCc3ccccc3)CCN2C(=O)[C@H]2CCCCN2C1=O [Example 160, c-[D-2-Naphthylalanyl-L-isoleucyl-D-pipecolyl-D-piperazin-2-yl-(4-carbobenzyloxy)-D-hystidyl-L-prolyl]] (cyclo(I[dPip][dPip(4-aza,4-Cbz)][dH]P[d2Nal]))
inhibition at 1 µM ([1]; 0.5 h, @ 1,000 (nM), read-out: [^3 H]-AVP-V2: percent inhibition of radioligand at the given concentration): 66%
IC50 [2, 5]: > 1000 nM
inhibition at 0.01 µM ([3]; 1 h, @ 10 (nM), read-out: [^3 H]OT: percent inhibition of radioligand at the given concentration): 53%

CC[C@H](C)[C@@H]1NC(=O)[C@@H](Cc2ccccc2)NC(=O)[C@@H]2CCCN2C(=O)[C@@H](Cc2ccccc2)N(C)C(=O)[C@@H]2CCCCN2C(=O)[C@H]2CCCNN2C1=O [Example 111, c-[D-Phenylalanyl-L-isoleucyl-D-piperazyl-L-pipecolyl-N-methyl-D-phenylalanyl-L-prolyl]] (cyclo(I[X6][Pip][dNMeF]P[dF]))
IC50 [1, 8]: 3500 nM
IC50 [2, 7]: 4200 nM
IC50 [3]: 111 nM

CC[C@H](C)[C@@H]1NC(=O)[C@@H](Cc2cn(CC(=O)OC(C)(C)C)c3ccccc23)NC(=O)[C@@H]2CCCN2C(=O)[C@@H](Cc2ccccc2)N(C)C(=O)[C@@H]2CN(CC(=O)OC(C)(C)C)CCN2C(=O)[C@H]2CCCCN2C1=O [Example 182, c-[D-Tryptophanyl(t-butylacetyl)-L-isoleucinyl-D-pipecolyl-L-piperazin-2-yl(4-t-butylacetyl)-D-(N^α -Me)phenylalanyl-L-prolyl]]
IC50 [1, 4]: > 10000 nM
IC50 [2, 5]: > 10000 nM
inhibition at 1 µM [3, 6]: 56%

CC[C@H](C)[C@@H]1NC(=O)[C@@H](Cc2ccccc2)NC(=O)[C@@H]2CCCN2C(=O)[C@@H](Cc2c[nH]cn2)NC(=O)[C@H](CCCCNC(=O)OCc2ccccc2)NC(=O)[C@H]2CCCCN2C1=O [Example 37, Cyclo[D-Phenylalanyl-L-isoleucyl-D-pipecolyl-L-(carbobenzyloxy)lysyl-D-histidyl-L-prolyl]] (cyclo(I[dPip]K(Cbz)[dH]P[dF]))
IC50 [1, 4]: > 10000 nM
IC50 [2, 5]: 10000 nM
IC50 [3]: > 100 nM
